Measured values as given in ChEMBL document CHEMBL2216751, “PI3Kδ and PI3Kγ as targets for autoimmune and inflammatory diseases” (J Med Chem, 2012).
Blank lines part the entries; values can stand above or below the compound they belong to.

Experiments:
Mus musculus [1] = species on record: Mus musculus; assay: Antiarthritic activity in adjuvant-induced rheumatoid arthritis mouse model assessed as reduction in disease clinical score; assay type: functional; design: scale not given: the % may be the effect or the level left
[2] = molecular target: T1, Phosphatidylinositol 4,5-bisphosphate 3-kinase catalytic subunit delta isoform (Homo sapiens, UniProt O00329); conditions: read-out: IC50
T1 sequence (O00329 whole entry): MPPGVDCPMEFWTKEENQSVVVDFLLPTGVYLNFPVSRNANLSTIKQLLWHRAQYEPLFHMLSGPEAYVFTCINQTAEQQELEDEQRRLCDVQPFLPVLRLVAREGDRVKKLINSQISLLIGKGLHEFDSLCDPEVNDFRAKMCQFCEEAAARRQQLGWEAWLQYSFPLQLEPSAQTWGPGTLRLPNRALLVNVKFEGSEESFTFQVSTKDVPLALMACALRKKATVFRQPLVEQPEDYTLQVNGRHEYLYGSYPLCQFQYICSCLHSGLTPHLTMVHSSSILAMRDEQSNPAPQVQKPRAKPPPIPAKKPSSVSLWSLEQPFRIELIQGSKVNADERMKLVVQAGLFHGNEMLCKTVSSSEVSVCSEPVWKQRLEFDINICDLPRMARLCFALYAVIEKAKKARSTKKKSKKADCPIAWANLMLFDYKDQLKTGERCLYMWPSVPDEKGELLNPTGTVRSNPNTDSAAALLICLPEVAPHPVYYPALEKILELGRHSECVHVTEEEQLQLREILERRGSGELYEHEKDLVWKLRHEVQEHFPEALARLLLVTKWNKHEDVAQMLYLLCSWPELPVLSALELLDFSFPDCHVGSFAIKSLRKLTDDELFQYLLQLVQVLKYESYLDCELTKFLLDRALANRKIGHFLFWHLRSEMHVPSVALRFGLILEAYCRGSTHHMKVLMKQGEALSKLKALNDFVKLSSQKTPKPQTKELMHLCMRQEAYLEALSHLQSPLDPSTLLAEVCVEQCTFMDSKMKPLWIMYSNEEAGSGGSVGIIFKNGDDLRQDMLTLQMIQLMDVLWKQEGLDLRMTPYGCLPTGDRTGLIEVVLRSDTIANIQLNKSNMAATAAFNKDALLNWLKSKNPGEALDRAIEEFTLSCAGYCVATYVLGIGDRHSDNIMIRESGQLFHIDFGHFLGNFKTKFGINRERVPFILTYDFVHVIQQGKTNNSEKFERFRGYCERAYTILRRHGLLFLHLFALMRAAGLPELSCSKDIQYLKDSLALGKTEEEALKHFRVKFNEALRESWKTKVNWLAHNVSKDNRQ

[3] = molecular target: T2, Phosphatidylinositol 4,5-bisphosphate 3-kinase catalytic subunit delta isoform (Mus musculus, UniProt O35904); assay: Inhibition of PI3Kdelta-mediated AKT phosphorylation in mouse Raw 264.7 cells by immunoassay; assay type: cell-based
T2 sequence (O35904 whole entry): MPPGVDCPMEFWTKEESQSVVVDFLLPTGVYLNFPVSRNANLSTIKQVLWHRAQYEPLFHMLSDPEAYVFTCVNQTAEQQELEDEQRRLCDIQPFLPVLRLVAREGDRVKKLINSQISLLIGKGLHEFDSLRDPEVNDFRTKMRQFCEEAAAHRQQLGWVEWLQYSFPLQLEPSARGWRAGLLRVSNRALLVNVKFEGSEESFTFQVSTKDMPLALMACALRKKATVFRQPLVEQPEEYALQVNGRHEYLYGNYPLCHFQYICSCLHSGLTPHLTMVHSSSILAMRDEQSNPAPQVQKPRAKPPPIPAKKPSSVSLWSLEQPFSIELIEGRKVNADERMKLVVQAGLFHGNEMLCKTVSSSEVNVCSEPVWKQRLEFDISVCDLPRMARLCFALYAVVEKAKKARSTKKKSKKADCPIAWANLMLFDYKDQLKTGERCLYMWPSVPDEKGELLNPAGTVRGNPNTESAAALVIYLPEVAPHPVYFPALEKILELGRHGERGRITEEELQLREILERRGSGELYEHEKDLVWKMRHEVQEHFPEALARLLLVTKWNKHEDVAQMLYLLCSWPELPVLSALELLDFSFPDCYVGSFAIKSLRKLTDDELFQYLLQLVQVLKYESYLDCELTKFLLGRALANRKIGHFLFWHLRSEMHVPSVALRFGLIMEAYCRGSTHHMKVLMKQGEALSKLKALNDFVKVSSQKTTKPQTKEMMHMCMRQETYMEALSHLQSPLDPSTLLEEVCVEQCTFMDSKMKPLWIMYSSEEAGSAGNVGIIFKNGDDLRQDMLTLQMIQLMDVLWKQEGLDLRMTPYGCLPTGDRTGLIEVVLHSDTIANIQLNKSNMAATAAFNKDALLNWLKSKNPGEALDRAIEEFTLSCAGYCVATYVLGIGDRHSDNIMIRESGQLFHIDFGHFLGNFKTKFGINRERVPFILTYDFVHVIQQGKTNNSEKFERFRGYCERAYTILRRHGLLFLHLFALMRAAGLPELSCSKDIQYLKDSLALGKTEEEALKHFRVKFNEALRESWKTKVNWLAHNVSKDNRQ

[4] = molecular target: T1, Phosphatidylinositol 4,5-bisphosphate 3-kinase catalytic subunit delta isoform; assay: Inhibition of PI3Kdelta in human PBMC assessed as inhibition of anti-IgM-induced AKT phosphorylation by FACS analysis
Rattus norvegicus [5] = assay: Cardioprotective activity in Sprague-Dawley rat MI model assessed as reduction in coronary artery occlusion at 0.05 to 5 mg/kg, iv administered as single bolus dose post 60 mins of reperfusion measured after 24 hrs; assay type: functional; design: scale not given: the % may be the effect or the level left; conditions: dose mg/kg 0.05-5
Mus musculus [6] = assay: Antiinflammatory activity in LPS-induced COPD BALB/c mouse model assessed as reduction in pulmonary neutrophilia at 0.4 % administered as aerosolized formulation; assay type: functional; design: scale not given: the % may be the effect or the level left
Mus musculus [7] = assay: Antiinflammatory activity in ovalbumin-sensitized mouse asthma model assessed as reduction in airway-hyper responsiveness at 0.4 % administered as aerosolized formulation for 12 to 14 days; assay type: functional; design: scale not given: the % may be the effect or the level left
Mus musculus [8] = assay: Antiinflammatory activity in ovalbumin-sensitized mouse asthma model assessed as reduction in lung eosinophils at 0.4 % administered as aerosolized formulation for 12 to 14 days; assay type: functional; design: scale not given: the % may be the effect or the level left
Sus scrofa = assay: Cardioprotective activity in pig MI model assessed as reduction in coronary artery occlusion at 0.5 mg/kg, iv administered as single bolus dose post 90 mins of reperfusion measured after 24 hrs; assay type: functional; design: scale not given: the % may be the effect or the level left
Rattus norvegicus [9] = assay: Antiinflammatory activity in Sprague-Dawley rat assessed as reduction in PAF/dextran-induced hind paw edema at 5 mg/kg; assay type: functional; design: scale not given: the % may be the effect or the level left
Mus musculus [10] = assay: Antiinflammatory activity in cigarette smoking-induced COPD BALB/c mouse model assessed as reduction in pulmonary neutrophilia at 0.4 % administered as aerosolized formulation; assay type: functional; design: scale not given: the % may be the effect or the level left
[11] = molecular target: T1, Phosphatidylinositol 4,5-bisphosphate 3-kinase catalytic subunit delta isoform; assay: Inhibition of PI3Kdelta assessed as inhibition of H2O2-induced AKT phosphorylation by cell-based assay
[12] = molecular target: T1, Phosphatidylinositol 4,5-bisphosphate 3-kinase catalytic subunit delta isoform; assay: Inhibition of PI3Kdelta using phosphatidylinositol as substrate by gamma33P[ATP] incorporation assay

SMILES: O=C1NC(=O)/C(=C/c2ccc3nccnc3c2)S1
Activity (Mus musculus [1]): 40%

IC50 [2]: 6 nM
IC50 [3]: < 10 nM
SMILES: O=C1NC(=O)/C(=C/c2ccc3ncnc(N4CCC(C(F)(F)F)CC4)c3n2)S1

IC50 [4]: 16 nM
SMILES: COc1cc(Nc2nc3ccccc3nc2NS(=O)(=O)c2ccc(CN(C)C)cc2)cc(OC)c1

SMILES: Nc1nc(N)c2nc(-c3cccc(O)c3)c(-c3cccc(O)c3)nc2n1 [TG100-115]
Activity (Rattus norvegicus [5]): >=40%
Activity (Mus musculus [6]): 42%
Activity (Mus musculus [7]): 50%
Activity (Mus musculus [8]): 79%
Activity (Sus scrofa): 35%
Activity (Rattus norvegicus [9]): >=62%
Activity (Mus musculus [10]): >=81%

IC50 [11]: 570 nM
SMILES: C#Cc1cccc2nc(Cn3nc(-c4cccc(O)c4)c4c(N)ncnc43)n(Cc3cccc(OC)c3)c(=O)c12

IC50 [12]: 1050 nM
SMILES: O=c1cc(N2CCOCC2)oc2c(-c3ccccc3)cccc12 [LY-294002]
